Measurements: patent publication US9505768B2, “Compositions and methods for modulating TLR4” (The Regents of the University of California, priority 2012, dated 2016)
“Also recorded” adds a separate entry of the source. Read-outs that look alike come from different tables or passages of the source.

Columns and labels:
human TLR4 = target: T1, human TLR4 (Homo sapiens, UniProt O00206+Q9Y6Y9); assay: Human TLR4 HEK Blue NFκB/SEAP reporter assay; assay type: cell-based; conditions: for human TLR4, values normalized to Cmpd 1: hTLR4 HEK293 transfectoma, all compounds tested at 10 μM, Cmpd 1 set at 100
T1 construct: host or cells: HEK293 (HEK Blue) cells with NFκB/SEAP reporter
T1 sequence (O00206 24-839): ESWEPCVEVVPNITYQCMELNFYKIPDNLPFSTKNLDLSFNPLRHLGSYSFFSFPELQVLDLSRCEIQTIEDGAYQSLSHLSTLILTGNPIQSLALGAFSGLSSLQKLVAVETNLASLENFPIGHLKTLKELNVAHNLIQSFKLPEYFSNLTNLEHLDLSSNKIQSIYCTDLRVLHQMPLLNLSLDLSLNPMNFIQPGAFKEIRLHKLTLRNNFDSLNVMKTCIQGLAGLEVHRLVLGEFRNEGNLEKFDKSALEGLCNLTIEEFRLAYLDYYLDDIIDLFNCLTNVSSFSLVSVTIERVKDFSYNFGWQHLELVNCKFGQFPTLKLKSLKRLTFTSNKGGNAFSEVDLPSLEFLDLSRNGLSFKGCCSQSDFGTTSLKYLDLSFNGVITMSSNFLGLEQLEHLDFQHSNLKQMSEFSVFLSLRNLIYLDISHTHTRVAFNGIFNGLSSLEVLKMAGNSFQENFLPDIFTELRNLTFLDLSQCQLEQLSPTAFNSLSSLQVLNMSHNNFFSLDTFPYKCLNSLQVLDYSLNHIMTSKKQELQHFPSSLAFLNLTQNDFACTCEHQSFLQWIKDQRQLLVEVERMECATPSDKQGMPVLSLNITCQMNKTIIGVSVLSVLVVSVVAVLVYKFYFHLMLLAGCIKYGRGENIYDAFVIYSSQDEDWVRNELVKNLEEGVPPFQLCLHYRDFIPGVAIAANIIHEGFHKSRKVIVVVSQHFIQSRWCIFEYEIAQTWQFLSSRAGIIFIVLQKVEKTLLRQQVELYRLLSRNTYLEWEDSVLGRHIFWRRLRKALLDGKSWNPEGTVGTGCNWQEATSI
T1 sequence (Q9Y6Y9 19-160): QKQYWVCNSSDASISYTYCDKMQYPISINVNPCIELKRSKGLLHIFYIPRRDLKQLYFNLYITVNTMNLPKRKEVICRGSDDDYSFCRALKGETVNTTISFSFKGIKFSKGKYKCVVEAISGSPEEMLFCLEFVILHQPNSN
Procedure: (§1) The above assays were utilized to compare the derivatives of the lead pyrimidoindole for their ability to activate mouse and human TLR4. […] Each cytokine induction curve was first converted to a percent activity curve, and then the AUC of the percent activity curve was calculated. The process of converting to a percent activity curve allowed subtracting background and adjusting for plate-to-plate variation.
(§2) The culture supernatants were harvested after a 20-24 h incubation period. SEAP activity in the supernatants was determined by a colorimetric assay, using either the SEAPorter Assay Kit (Imgenex), with absorbance read at 405 nm, or QuantiBlue (Invivogen), with absorbance read at 630 nm.

[1] = system: mouse bone marrow derived dendritic cells (mBMDC); assay: IP-10 induction in mBMDC (ELISA), surrogate marker of type I IFN; assay type: cell-based
C57BL/6 mice [2] = assay: Protection from LPS/galactosamine-induced lethal liver injury; assay type: in vivo, mouse
Procedure: FIGS. 11A-11B depict that administration of Cmpd 42 and Cmpd 33 protects hosts from LPS-induced lethal liver injury. FIG. 11A: Schematic showing that C57BL/6 mice were intraperitoneously injected with 500 nmol Cmpd. 42 (n=11) or Cmpd 33 (n=11). 40 μg MPLA (n=9) and vehicle (n=9) were used as positive and negative controls, respectively. Next day, mice were challenged with LPS (0.2 μg/animal) and galactosamine (12 mg/animal). FIG. 11B: Histogram showing results of sera collected 1.5 h post challenge and measured for TNFα. *:p<0.05 compared to vehicle treated mice.
Lipopolysaccharide (LPS), a TLR4 ligand, causes severe lethal liver injury when administered with galactosamine. Pretreatment of mice with MPLA is known to improve the survival in this model. To study whether Cmpd 42 and Cmpd 33 are able to act as immunomodulatory agents similar to MPLA, the mice were treated with Cmpd 42 or Cmpd 33 and challenged with LPS/galatosamine the next day, as depicted in FIG. 11A. Over 80% of Cmpd 42 and 100% of Cmpd 33-treated mice survived.

[3] = system: mouse bone marrow derived dendritic cells (mBMDC); assay: IL-6 induction in mouse bone marrow derived dendritic cells (ELISA); assay type: cell-based; conditions: relative to Cmpd 1 / within series
Procedure: as §1
(§3) BMDC were prepared from C57BL/6 mice as described. See e.g., Wu, C. […] BMDC (10^5 cells per well) were plated in 96-well plates in 200 μL of complete RPMI1640 supplemented with 10% fetal calf serum (FCS; Sigma Aldrich), 100 U/mL penicillin, and 100 μg/mL streptomycin (Invitrogen). […] After 18 h incubation, the cell culture supernatants were collected. LPS (purified LPS, Invivogen, San Diego, Calif.) or MPLA (1 μg/mL synthetic MPLA, Invivogen, San Diego, Calif.) were used as positive controls. […] The AUC was calculated from BMDC dose-response curves using Prism 5 (GraphPad, San Diego). Each cytokine induction curve was first converted to a percent activity curve, and then the AUC of the percent activity curve was calculated. The process of converting to a percent activity curve allowed subtracting background and adjusting for plate-to-plate variation.

[4] = system: mouse bone marrow derived dendritic cells (mBMDC); assay: IP-10 induction in mBMDC (ELISA), surrogate marker of type I IFN; assay type: cell-based; conditions: relative to Cmpd 1
Procedure: In addition to the production of inflammatory cytokines (IL-6, IL-12, TNFα, etc.) mediated by NFκB activation, TLR4 signaling can result in the production of type I interferons, a feature that is not only important for activation of dendritic cells leading to good adjuvant activity, but would also be important for rapid defense against a variety of pathogens, particularly viruses. […] To determine the relative ability of all compounds to induce the production of type 1 IFN, each was evaluated in mouse bone marrow derived dendritic cells as shown in Tables 1-3.
as §3
In addition, the levels of IP-10, a surrogate marker of type I IFN, in the supernatants were determined by ELISA (R&D Systems, Minneapolis, Minn.).

[5] = Oral bioavailability in mice (serum LC/MS); assay type: in vivo; conditions: mouse, C57BL/6 mice, 1 μmol oral vs 500 nmol i.v., AUC method
Procedure: FIG. 14 depicts time course showing that Cmpd 42 is orally bioavailable in mice. C57BL/6 mice were intravenously (500 nmol) or orally (1 μmol) administered with Cmpd 42. Sera were collected at the indicated time point and concentration of the compound were measured by LC/MS. Legend: oral administration, closed circle; i.v. administration, closed box. X-axis: time (min). Y-axis: concentration of Cmpd 42 (nM).
To test oral bioavailability, Cmpd 42 was orally or intravenously administered to C57BL/6 mice and the drug concentration in sera was measured. Results are depicted in FIG. 14.

C57BL/6 mice [6] = conditions: in vivo
mBMDC = assay: MTT viability assay in mBMDC; conditions: 18 h, concentrations up to 10 μM
Procedure: Cytotoxicity of the compounds was evaluated by MTT assay as a measure of viability. mBMDC (10^5/well) were incubated with graded concentrations of the compounds for 18 h and compared with vehicle (0.5% DMSO) and MPLA (1 μg/mL). […] (FIG. 6B) The cells were lysed after the overnight incubation with MTT reagents, and absorbance at 570 nm was measured, subtracting the reference absorbance at 650 nm. Data shown are mean±SEM of triplicates and are representative of two independent experiments showing similar results.

[7] = system: mouse bone marrow derived dendritic cells (mBMDC); assay: IL-6 induction in mouse bone marrow derived dendritic cells (ELISA); assay type: cell-based
mouse TLR4 = target: T2, mouse TLR4 (Mus musculus, UniProt Q9JHF9+Q9QUK6); assay: Murine TLR4 HEK Blue NFκB/SEAP reporter assay; assay type: cell-based; conditions: for mouse TLR4, area under curve (AUC) values normalized to Cmpd 1: mTLR4 HEK transfectoma, 312 nM to 10 μM, Cmpd 1 set at 100
T2 construct: host or cells: HEK293 (HEK Blue) cells with NFκB/SEAP reporter
T2 sequence (Q9QUK6 26-835): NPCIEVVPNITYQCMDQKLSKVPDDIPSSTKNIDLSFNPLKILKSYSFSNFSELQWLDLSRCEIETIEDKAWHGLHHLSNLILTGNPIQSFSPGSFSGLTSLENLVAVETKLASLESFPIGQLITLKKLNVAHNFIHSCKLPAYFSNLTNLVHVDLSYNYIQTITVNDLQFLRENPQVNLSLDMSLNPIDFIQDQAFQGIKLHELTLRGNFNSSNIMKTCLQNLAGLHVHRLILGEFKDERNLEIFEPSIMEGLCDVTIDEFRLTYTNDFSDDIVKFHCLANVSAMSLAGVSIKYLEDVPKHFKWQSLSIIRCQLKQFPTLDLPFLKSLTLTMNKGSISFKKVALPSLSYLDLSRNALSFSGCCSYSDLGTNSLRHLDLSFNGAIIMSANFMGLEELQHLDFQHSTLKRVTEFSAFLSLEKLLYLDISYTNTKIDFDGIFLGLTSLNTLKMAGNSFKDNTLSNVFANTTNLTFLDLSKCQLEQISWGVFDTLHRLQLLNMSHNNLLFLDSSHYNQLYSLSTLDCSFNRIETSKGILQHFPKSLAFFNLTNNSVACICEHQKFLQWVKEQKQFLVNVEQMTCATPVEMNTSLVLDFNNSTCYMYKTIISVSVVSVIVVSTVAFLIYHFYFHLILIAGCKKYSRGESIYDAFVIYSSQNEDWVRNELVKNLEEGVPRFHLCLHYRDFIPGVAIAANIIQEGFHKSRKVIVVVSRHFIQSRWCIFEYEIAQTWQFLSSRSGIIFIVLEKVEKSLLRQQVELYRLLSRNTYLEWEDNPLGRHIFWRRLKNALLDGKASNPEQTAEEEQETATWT
T2 sequence (Q9JHF9 19-160): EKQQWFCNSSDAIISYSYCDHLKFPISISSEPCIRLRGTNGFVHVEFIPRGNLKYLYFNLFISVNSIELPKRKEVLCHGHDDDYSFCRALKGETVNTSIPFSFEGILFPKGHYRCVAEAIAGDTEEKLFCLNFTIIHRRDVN
Procedure: as §1, §2

[8] = system: mouse bone marrow derived dendritic cells (mBMDC)
Procedure: 0.5% DMSO in saline served as a vehicle controls. The levels type I IFN were determined using L929-ISRE luciferase reporter cell line using murine IFN beta standard (FIG. 7A). IP-10 levels were determined by ELISA (FIG. 7B). Data shown are mean±SEM of triplicates in representative of two independent experiments showing similar results. * denotes p<0.05 was considered as significant compared to vehicle using one way ANOVA with Dunnett's post hoc testing.
L929 cells stably expressing an interferon sensitive response element (ISRE) luciferase reporter construct were kindly provided by Dr. B. Beutler (UT Southwestern, Texas). […] The bioactivity of type I IFN in mBMDC supernatants was measured by luciferase assay using L929-ISRE cells as described previously. […] Thus, 50 μL of μBMDC supernatant was incubated with L929-ISRE cells in 50 μL of DMEM for 6 h. Mu-IFN Beta Standard (PBL Interferon Source, Piscataway, N.J.) was used as a standard. The luciferase activities were measured by Steady-Glo luciferase assay buffer (Promega, Madison, Wis.).

[9] = system: human peripheral blood mononuclear cells (hPBMC); assay: IL-8 release from human PBMC (ELISA); assay type: cell-based; conditions: compound 1 10 μM
Procedure: Human PBMC were isolated from buffy coats obtained from the San Diego Blood Bank (San Diego, Calif.) as described previously. […] The levels of IL-8 in the supernatants were determined by ELISA (BD Biosciences, La Jolla, Calif.). Human cell cultures were treated with 10 ng/mL LPS as the positive control.

[10] = system: TLR2, TLR3, TLR4/MD-2/CD14, TLR5, TLR7, TLR8, or TLR9 expressing HEK293 cells; conditions: 10 μM, 20-24 h, SEAP
Text: To identify the target receptor, we used HEK293 cells stably transfected with individual human (h) TLRs: TLR2, TLR3, TLR4/MD-2/CD14, TLR5, TLR7, TLR8, or TLR9 expressing HEK293 cells, along with an NFκB activation reporter producing secreted embryonic alkaline phosphatase (SEAP).

[11] = WT vs Cd14-/- mBMDC, 3.7 μM overnight

With `Cn1c2ccccc2c2nc(SCC(=O)NC3CCCCC3)n(-c3ccccc3)c(=O)c21` [Compound 42, N-cyclohexyl-2-((5-methyl-4-oxo-3-phenyl-4,5-dihydro-3H-pyrimido[5,4-b]indol-2-yl)thio)acetamide] the “human TLR4, values normalized to Cmpd 1” value (human TLR4) was 92, the “IP-10 induction in LPS mutant (Trif lps/lps) cells” value ([1]; 5 μM overnight, vs C57BL/6 WT) was “significantly decreased” and the “serum TNFα” value (C57BL/6 mice [2]; […] post challenge, compared to vehicle treated mice) was “significantly lower level”. For the same compound, the mice survived (C57BL/6 mice [2]; i.p. pretreatment 500 nmol, LPS/galactosamine challenge next day) was “Over 80%”, the Survival (C57BL/6 mice [2]; i.p. pretreatment (500 nmol Cmpd, 40 μg MPLA), next day LPS 0.2 μg + galactosamine 12 mg per animal, survivors/treated) was 9/11 and the “IL-6 activity in mBMDC (in words)” value [3] was “high IL-6”. For the same compound, the “IP-10 production in mBMDC (in words)” value [4] was “high IP-10 production”, the bioavailability [5] was ~15% and the mice survived (C57BL/6 mice [6]; C57BL/6, mouse) was 100%. For the same compound, the “maximum tolerated dose relative to MPLA” value (C57BL/6 mice [6]; mouse) was > 10 times, the “serum TNFα” value (C57BL/6 mice [6]; mouse) was “significantly lower level” and the “cell viability (MTT)” value (mBMDC) was “did not reduce cell viability”. For the same compound, the “IL-6 secretion in MyD88 null dendritic cells” value ([7]; 5 μM overnight, vs C57BL/6 WT) was “significantly impaired” and the “mouse TLR4, area under curve (AUC) values normalized to Cmpd 1” value (mouse TLR4) was 100.
For `O=C(CSc1nc2c([nH]c3ccccc32)c(=O)n1-c1ccccc1)NC1CCCCC1` [Compound 1, N-cyclohexyl-2-((4-oxo-3-phenyl-4,5-dihydro-3H-pyrimido[5,4-b]indol-2-yl)thio)acetamide], the “human TLR4 reporter cell activation (in words)” value (human TLR4) was “dose-dependent activation”, the “OD630 of human TLR4 reporter cells” value (human TLR4; 10 μM Cmpd 1) was 0.88 and the “human TLR4, values normalized to Cmpd 1” value (human TLR4) was 100. For the same compound, the IP-10 production [1] was “dose-dependent response”, the “IP-10 production in mBMDC (in words)” value [1] was “high IP-10 production” and the “IP-10 released by mBMDC cultures (average)” value [1] was 590.0 ± 10.5 pg/mL. For the same compound, the “CD14 dependence of type I IFN production” value [8, 11] was “not dependent on CD14”, the “type I IFN production” value ([8]; graded doses, mBMDC overnight) was “dose-dependent response” and the “IL-6 activity in mBMDC (in words)” value [3] was “the most active; also recorded: high IL-6”. The “IL-8 released by hPBMC cultures (average, SD)” value [9] was 7.8 ± 0.8 ng/mL, the “TLR selectivity among TLR transfected HEK293 reporter cells” value [10] was “only those expressing TLR4/MD-2/CD14 responded” and the “IL-6 released by mBMDC cultures (average, SD)” value ([7]; 5 μM Cmpd 1) was 10.5 ng/mL. For the same compound, the “IL-6 secretion in TLR4 deficient vs wild-type mBMDC” value ([7]; 10 μM, 18 h) was “completely abrogated”, the “CD14 dependence of IL-6 production” value [7, 11] was “not dependent on CD14; also recorded: retains IL-6 activity” and the “mouse TLR4 reporter cell activation (in words)” value (mouse TLR4) was “dose-dependent activation”. For the same compound, the “relative reporter activation, murine TLR4 cells” value (mouse TLR4; 5 μM Cmpd 1) was 1.52±0.03 and the “mouse TLR4, area under curve (AUC) values normalized to Cmpd 1” value (mouse TLR4) was 100.
With `N#CCn1c2ccccc2c2nc(SCC(=O)NC3CCCCC3)n(-c3ccccc3)c(=O)c21` [Compound 51, 2-((5-(cyanomethyl)-4-oxo-3-phenyl-4,5-dihydro-3H-pyrimido[5,4-b]indol-2-yl)thio)-N-cyclohexylacetamide] the “human TLR4, values normalized to Cmpd 1” value (human TLR4) was 19, the “cell viability (MTT)” value (mBMDC) was “did not reduce cell viability” and the “mouse TLR4, area under curve (AUC) values normalized to Cmpd 1” value (mouse TLR4) was 55.
In the case of `CCCn1c2ccccc2c2nc(SCC(=O)NC3CCCCC3)n(-c3ccccc3)c(=O)c21` [Compound 48, N-cyclohexyl-2-((4-oxo-3-phenyl-5-propyl-4,5-dihydro-3H-pyrimido[5,4-b]indol-2-yl)thio)acetamide], the “cell viability (MTT)” value (mBMDC) is reported as “did not reduce cell viability”.
